Measurements from PMC9655874, “Analysis of Volatile Secondary Metabolites in Ocimum basilicum Cell Suspensions: Inhibition, In Silico Molecular Docking, and an ADMET Analysis against Proteolytic Enzymes of Rhynchophorus ferrugineus” (Plants, 2022).
Converted amounts (≈) assume the structure as drawn.

What was measured:
R. ferrugineus adults = assay: whole plant or invertebrate; assay type: in vivo; conditions: Rhynchophorus ferrugineus, read-out: LC50 (µg/mL) 95% CF
Protocol: (§1) Cells were suspended in the methanolic extract at serially increasing concentrations for 40 days. To dilute the compounds, TritonX-100 (0.1%) was added to acetone after the chemicals were dissolved. Adults or larvae of R. ferrugineus were purchased. They were then cultured using long lengths of sugar cane stem. The extracts’ anti-larvae action was assessed by applying topically to larvae and keeping them at 4–5 °C for 5 min. Utilizing a manually controlled micro-applicator, each larva had extract injected into its dorsum in three separate 10 µL doses using a 50-ll micro-syringe from Hertfordshire, UK’s Burkard Manufacturing Co., Ltd. (MS-N50; Shizuoka, Japan’s Ito Corp.). Five larvae in a box with three replications were fed on portions of long sugarcane stem measuring 10 cm. […] The sugarcane stem’s ten-centimeter-long portions cut into equal longitudinal halves were used to measure the antifeedant activity against adults. Long sections of sugarcane stem with a surface area of approximately 32.2 cm^2 were dried in air at room temperature, assuming a dipping time of 10 s and an initial serial concentration of (10 mL). Each treated object remained in a plastic container. Each box included an additional pair (male and female). Each therapy was administered ten times. In total, 24-, 48-, 72-, and 96-h feeding observations were assessed.
(§2) Statistics and probit analysis were performed using SPSS 25.0, as mentioned by Finney. To sum up, all numerical predictions of toxicity variables and findings were presented as the mean ± SE. We regressed mortality and translated the resulting dosage to an LC50 value (µg/mL). […] Enzyme activity data were analyzed using an ANOVA. Means were separated using the SNK (Student–Newman–Keuls) test, and deviations at the p ˂ 0.05 level were considered noteworthy.

[1] = test system: cysteine protease of R. ferrugineus midgut; assay: Cysteine protease activity in midgut of treated larvae (in vivo); design: species or system Rhynchophorus ferrugineus; conditions: larvae treated 24 h, midgut preparation
Protocol: (§3) Utilizing the substrate N-benzoyl-Phe-Val-Arg-p-nitroanilide hydrochloride and certain modifications, the cysteine proteinases of R. ferrugineus homogenate from the fourth midgut instar was tested for activity. Ten larvae of the fourth midgut were carefully taken out, dissected, and periodically washed with 0.9% (w/v) NaCl solution, assay buffer containing 50 mM HEPS, 5 mM DTT, and 0.1% Triton X-100 (v/v) (pH 8.0, 500 µL) was used to homogenize the samples. The homogenates were spun using a cooling Sigma 3k30 centrifuge for 30 min at 5000 rpm. […] Before introducing 100 µL of the substrate, 10 µL of the supernatant was incubated in assay buffer (60 µL, pH = 8) at 37 °C for 30 min. Enzyme samples in 10 µL were incubated for 10 min with iodoacetic acid before the addition of the substrate. […] The absorbance at 520 nm was measured after spinning the reaction for 6 min at 5000 rpm. The activity in the midgut was assayed at OD520.60 min^−1 mg^−1 of protein with an ELISA rapid reader.

[2] = test system: R. ferrugineus 4th larvae; assay: Topical application (contact insecticide) to fourth instar larvae; assay type: in vivo, Rhynchophorus ferrugineus; conditions: for LD50 (µg/Larvae) 95% CF: 4th larvae, topical, 95% confidence limits in brackets; for LD50: larvae
Protocol: as §1, §2

[3] = target: total proteases of R. ferrugineus midgut; assay: Total proteolytic enzyme activity of 4th instar midgut homogenate, azocasein (in vitro)
Protocol: (§4) The homogenate of R. ferrugineus 4th midgut instar larvae (lab strain) was assayed for total proteolytic enzyme activity using azocasein, as Darrag et al. [26], with modifications. Ten 4th midgut larval homogenates were carefully removed, incised, and then rinsed in a solution containing 0.9% NaCl before even being homogenized in a buffer (500 µL) containing 5 mM dithiothreitol (DTT), 0.1% (v/v) Triton X-100, and 50 mM N-2-hydroxyethyl piperazine-N′-2-ethane sulphonic acid (HEPS), and 8.0 pH. It was spun in a centrifuge (Sigma 3k30), and the remaining homogenates were from a preliminary phase for 30 min at 5000 rpm. Using the supernatants, the protein concentration and proteolytic enzyme activity were determined. […] Before each reaction experiment, 40-day-old methanolic extract of cell suspension, pure chemicals, and 10 μL of enzyme specimens were incubated for 10 min. The addition of the substrate initiated the reaction, which was allowed for 20 min in the case of leupeptin before being terminated 180 min later by adding 300 µL of cold tri-chloroacetic acid (TCA) (10%, v/v). Twenty minutes were spent centrifuging the mixture at 5000 rpm (Sigma 3k30). Overall, 10 µL of NaOH (10 N) was added to the supernatant, and the absorbance was measured using an ELISA plate reader at 450 nm to quantify the enzymes’ specific activity as OD450/mg protein/h.
(§5) An experiment that was set up free of potential inhibitors served as a control. An ELISA plate fast reader measured the enzymes’ absorption at various wavelengths. For each inhibitor, the control enzyme’s percentage activity was assessed for each enzyme. Four instars midgut larvae were treated with previous concentrations of extracts or compounds, assessed as previously mentioned, to measure the protease activity in vivo. Larvae were subjected to extract- and compound-treated leaf discs for 24 h.

[4] = test system: metalloprotease of R. ferrugineus midgut; assay: Metalloprotease activity in midgut of treated larvae (in vivo); conditions: larvae treated 24 h, midgut preparation
Protocol: (§6) The ten midgut larvae from the fourth stage were neatly eliminated, dissected, and repeatedly washed with 0.9% NaCl solution. A 500 µL protease test solution, including 50 mM HEPS, 0.1% Triton X-100, and 5 mM DTT (pH 8.0), was utilized to homogenize the midgut instar. The homogenates were then centrifuged employing a Sigma 3k30 (cooling centrifuge) at 5000 rpm for 30 min to evaluate the supernatant’s enzyme activity and protein content. Before introducing CEGR (125 µL, 2% (w/v)), each experiment’s supernatant (10 µL) was incubated in an assay buffer (60 µL) at 37 °C for 20 min (pH 8). During a 10 min incubation period without a substrate, 10 µL enzyme samples were tested (20 min. for EDTA, EGTA, 1.10, Phenanthroline). After 180 min at 37 °C, 300 µL of cold TCA, 10% (v/v), was used to terminate the reaction. For the next 20 min, the mixture was spun (5000 rpm, Sigma 3K30). The absorbance was measured at 450 nm after mixing the supernatant with hydroxide solution (10 µL, 10 N) using an ELISA reader. An enzyme-free assay combination was utilized as a blank, and particular activity was evaluated utilizing the OD493 mg^−1 protein min^−1 and an enzyme-free blank specimen.
as §5

[5] = test system: trypsin proteinase of R. ferrugineus midgut; assay: Trypsin activity in midgut of treated larvae (in vivo); conditions: larvae treated 24 h, midgut preparation
Protocol: (§7) We used a serine protease assay buffer and a modified version of the fast microplate method to analyze the serine proteinase’s specific activity in mixtures (150 µL) [26]. […] The sample (10 µL) was diluted using an assay buffer to 50 µL to determine the presence of trypsin proteinase, chymotrypsin proteinase, and elastase. Assay buffer was used to dilute stock substrates of BAρNA (100 mg/mL DMSO), both SAAPFρNA and SAAPLρNA (100 mg/mL DMF), to 1.0 mg/mL. To halt the reaction after 15 min of incubation at 37 °C, 50 µL of acetic acid (30%, v/v) was added. The intensity of the activity was measured using a 405 nm ELISA plate reader. A denaturation enzyme was used in place of an active enzyme in the experiment mixture. For three substrates (SAAPLρNA, BAρNA, and SAAPFρNA), activity levels of certain proteinases were assessed as OD mg^−1 protein min^−1.
as §5

[6] = target: metalloprotease of R. ferrugineus midgut; assay: Metalloproteinase specific activity, CEGR substrate (in vitro); conditions: 4th instar midgut homogenate
Protocol: as §6, §5

[7] = target: cysteine protease of R. ferrugineus midgut; assay: Cysteine proteinase activity (in vitro); assay type: biochemical, Rhynchophorus ferrugineus; conditions: 4th instar midgut homogenate
Protocol: as §3

[8] = target: trypsin proteinase of R. ferrugineus midgut; assay: Serine proteinase specific activity, trypsin (in vitro); conditions: 4th instar midgut homogenate
Protocol: as §7, §5

[9] = test system: total proteases of R. ferrugineus midgut; assay: Total protease activity in midgut of treated larvae (in vivo); conditions: larvae treated 24 h, midgut preparation
Protocol: as §4, §5

[10] = test system: gut proteases of R. ferrugineus fourth larval instar; assay: Specific protease inhibitors against gut proteases of fourth larval instar (in vitro); assay type: biochemical, Rhynchophorus ferrugineus; conditions: Figure S2, in vitro
Protocol: As a starting point (blank), an assessment combination not containing enzymes was utilized. TLCK (trypsin proteinase inhibitor), PMSF (general serine proteinase inhibitor), EDTA (EDTA-metalloproteinase inhibitor), iodoacetic acid (an iodoacetic acid-cysteine proteinase inhibitor), TPCK (chymotrypsin-proteinase inhibitor), and Leupeptin (as general proteinase inhibitor) were added to the reactions. Homogenates of larval fourth-gut tissue were prepared using the same methodology described for the enzyme activity test. The inhibitory test was conducted via a microplate assay, as reported previously. A series of inhibitor levels were prepared to determine the greatest inhibition activity. Concentrations of 0.01, 0.05, 0.1, and 1.0 mM leupeptin; 0.005, 0.01, 0.05, 0.1, and 1 mM TLCK and TPCK; 0.1, 1.0, 10, 50, and 100 mM PMSF; and 0.01, 0.05, 0.1, 1, and 2 mM iodoacetic acid, 100 mM; 1,10 phenanthroline, EDTA, and EGTA concentrations of 0.1, 1, 10, 50, and 100 mM.

[11] = target: elastase of R. ferrugineus midgut; assay: Serine proteinase specific activity, elastase (in vitro); assay type: biochemical, Rhynchophorus ferrugineus; conditions: 4th instar midgut homogenate
[12] = test system: elastase of R. ferrugineus midgut; assay: Elastase activity in midgut of treated larvae (in vivo); design: species or system Rhynchophorus ferrugineus; conditions: larvae treated 24 h, midgut preparation

| Structure (SMILES) | LC50 (R. ferrugineus adults) [µg/mL] | IC50 cysteine protease (in vivo) [1] [µg/mL] | LD50 (µg/Larvae) 95% CF [2] | LD50 ([2]; topical application) [µg/larva] | IC50 total proteases (in vitro) [3] [µg/mL] | IC50 metalloprotease (in vivo) [4] [µg/mL] | IC50 trypsin proteinase (in vivo) [5] [µg/mL] | IC50 metalloprotease (in vitro) [6] [µg/mL] | IC50 cysteine protease (in vitro) [7] [µg/mL] | IC50 trypsin proteinase (in vitro) [8] [µg/mL] | IC50 total proteases (in vivo) [9] [µg/mL] | Effect on extracted gut proteases of the fourth larval instar [10] | LD50 [2] [µg/larva] | IC50 elastase (in vitro) [11] [µg/mL] | IC50 elastase (in vivo) [12] [µg/mL] |
| --- | --- | --- | --- | --- | --- | --- | --- | --- | --- | --- | --- | --- | --- | --- | --- |
| C=CC(=C)CCC=C(C)CCC=C(C)C [β-farnesene] | 1360 (≈ 6640 µM) | 536.8 (≈ 2630 µM) | 18.4 (17.1–19.7) µg/Larvae | 18.4 | 88.6 (≈ 434 µM) | 545.7 (≈ 2670 µM) | 425.8 (≈ 2080 µM) | 101.5 (≈ 497 µM) | 128.4 (≈ 628 µM) | 60.2 (≈ 295 µM) | 675.2 (≈ 3300 µM) | – | – | – | – |
| Cc1ccc(S(=O)(=O)N[C@@H](Cc2ccccc2)C(=O)CCl)cc1 [TPCK] | – | – | – | – | – | – | – | – | – | – | – | significantly inhibited | – | – | – |
| CC(C)=CCC/C(C)=C\CO [nerol] | 1950 (≈ 12600 µM) | – | 15.6 (14.3–16.2) µg/Larvae | 15.6 | 188.3 (≈ 1220 µM) | 189.1 (≈ 1230 µM) | 186.3 (≈ 1210 µM) | 106.7 (≈ 692 µM) | – | 68.1 (≈ 441 µM) | 248.6 (≈ 1610 µM) | – | 15.6 | – | – |
| O=C(O)CN(CCN(CC(=O)O)CC(=O)O)CC(=O)O [EDTA] | – | – | – | – | – | – | – | – | – | – | – | significantly inhibited | – | – | – |
| CC12CCC(CC1)C(C)(C)O2 [1,8-cineole] | 1430 (≈ 9240 µM) | – | 13.9 (12.8–14.7) µg/Larvae | 13.9 | 91.5 (≈ 593 µM) | 1297.2 (≈ 8410 µM) | – | 708.2 (≈ 4590 µM) | – | 271.2 (≈ 1760 µM) | 193.1 (≈ 1250 µM) | – | 13.9 | 119.4 (≈ 774 µM) | 256.3 (≈ 1660 µM) |
| c1cnc2c(c1)ccc1cccnc12 [1,10 phenanthroline] | – | – | – | – | – | – | – | – | – | – | – | significantly inhibited | – | – | – |
| C=CC(C)(O)CCC=C(C)C (centres unmarked) [linalool] | 1400 (≈ 9060 µM) | 348.2 (≈ 2260 µM) | 13.7 (12.6–14.8) µg/Larvae | 13.7 | 90.7 (≈ 588 µM) | – | 137.5 (≈ 891 µM) | 278.2 (≈ 1800 µM) | 189.2 (≈ 1230 µM) | 63.4 (≈ 411 µM) | 192.7 (≈ 1250 µM) | – | 13.7 | 104.2 (≈ 676 µM) | 217.2 (≈ 1410 µM) |
| Cc1ccc(S(=O)(=O)N[C@@H](CCCCN)C(=O)CCl)cc1 [TLCK] | – | – | – | – | – | – | – | – | – | – | – | significantly inhibited | – | – | – |
| O=C(O)CI [iodoacetic acid] | – | – | – | – | – | – | – | – | – | – | – | significantly inhibited | – | – | – |
